{"source": "paper PMC9837035", "about": "(Nature Communications, 2023)", "key": {"[1]": {"system": "CD34+ cells", "assay": "Flow cytometry of erythroid differentiation (CD45, glycophorin A)", "format": "cell-based, human", "procedure": "For the analysis of HbF expression, HUDEP-2 cells or cells differentiated from human CD34 + progenitor cells were fixed in 0.05% glutaraldehyde for 10 min, then washed two times with PBS containing 2% FBS (PBS/2% FBS) and permeabilized with 0.1% Triton X-100 (prepared in PBS/2% FBS; Life Technologies) for 5 min. After washing with PBS/2% FBS two times, cells were stained with allophycocyanin (APC)-conjugated HbF antibody (1:1, Invitrogen, MHFH05). One million cells were incubated with the HbF–APC antibody for 30 min in the dark at 4 °C. Cells were washed twice with PBS/2% FBS, then suspended in 0.2 ml PBS/2% FBS and analyzed using a FACSCalibur (Becton Dickinson). To assess erythroid differentiation, hematopoietic cells differentiated from human CD34 cells were stained with FITC-conjugated CD45 antibody (1:1, Becton Dickinson, 555482) and APC-conjugated glycophorin A antibody (1:20, Becton Dickinson, 551336). Stained cells were suspended in 0.2 ml PBS/2% FBS containing 1 μg/ml propidium iodide (Sigma) and analyzed by FACSCalibur. The results of flow cytometer were further analyzed by FlowJo software (Becton Dickinson)."}, "[2]": {"target": "EZH2 (Y641F) (Homo sapiens, UniProt Q15910, Y641F)", "sequence (Q15910 whole entry Y641F)": "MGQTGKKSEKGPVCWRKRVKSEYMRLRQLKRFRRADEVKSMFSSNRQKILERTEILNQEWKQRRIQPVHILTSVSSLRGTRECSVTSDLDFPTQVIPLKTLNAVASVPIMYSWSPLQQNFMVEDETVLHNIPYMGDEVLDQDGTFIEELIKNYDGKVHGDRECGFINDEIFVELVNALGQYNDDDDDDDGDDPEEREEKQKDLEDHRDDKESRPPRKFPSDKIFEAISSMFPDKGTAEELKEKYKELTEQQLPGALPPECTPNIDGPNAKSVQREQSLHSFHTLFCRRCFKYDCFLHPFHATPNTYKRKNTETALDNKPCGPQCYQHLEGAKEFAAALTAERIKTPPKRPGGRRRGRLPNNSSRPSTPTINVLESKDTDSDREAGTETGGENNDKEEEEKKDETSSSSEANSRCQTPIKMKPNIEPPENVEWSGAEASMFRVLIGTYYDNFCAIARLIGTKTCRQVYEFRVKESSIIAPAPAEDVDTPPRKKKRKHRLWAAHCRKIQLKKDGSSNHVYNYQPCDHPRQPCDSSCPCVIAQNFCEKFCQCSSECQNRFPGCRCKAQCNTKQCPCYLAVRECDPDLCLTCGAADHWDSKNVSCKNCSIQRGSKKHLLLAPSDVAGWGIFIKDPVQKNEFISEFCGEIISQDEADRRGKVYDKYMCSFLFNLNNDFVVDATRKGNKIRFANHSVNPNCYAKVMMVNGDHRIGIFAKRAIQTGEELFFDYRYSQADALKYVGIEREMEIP", "sequence (O75530 whole entry partner)": "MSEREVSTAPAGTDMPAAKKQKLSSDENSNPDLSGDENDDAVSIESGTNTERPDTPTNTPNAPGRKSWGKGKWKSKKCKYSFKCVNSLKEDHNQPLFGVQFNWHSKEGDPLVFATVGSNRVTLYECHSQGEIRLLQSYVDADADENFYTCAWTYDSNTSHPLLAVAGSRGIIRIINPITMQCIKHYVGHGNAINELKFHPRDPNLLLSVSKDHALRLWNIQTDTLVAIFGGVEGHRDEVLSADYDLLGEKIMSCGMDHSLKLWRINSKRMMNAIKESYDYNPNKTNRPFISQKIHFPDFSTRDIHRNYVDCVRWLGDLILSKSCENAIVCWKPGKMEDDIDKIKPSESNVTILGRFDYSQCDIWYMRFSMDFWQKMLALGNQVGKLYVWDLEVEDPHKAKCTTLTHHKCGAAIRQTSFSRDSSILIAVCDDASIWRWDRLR", "sequence (Q15022 whole entry partner)": "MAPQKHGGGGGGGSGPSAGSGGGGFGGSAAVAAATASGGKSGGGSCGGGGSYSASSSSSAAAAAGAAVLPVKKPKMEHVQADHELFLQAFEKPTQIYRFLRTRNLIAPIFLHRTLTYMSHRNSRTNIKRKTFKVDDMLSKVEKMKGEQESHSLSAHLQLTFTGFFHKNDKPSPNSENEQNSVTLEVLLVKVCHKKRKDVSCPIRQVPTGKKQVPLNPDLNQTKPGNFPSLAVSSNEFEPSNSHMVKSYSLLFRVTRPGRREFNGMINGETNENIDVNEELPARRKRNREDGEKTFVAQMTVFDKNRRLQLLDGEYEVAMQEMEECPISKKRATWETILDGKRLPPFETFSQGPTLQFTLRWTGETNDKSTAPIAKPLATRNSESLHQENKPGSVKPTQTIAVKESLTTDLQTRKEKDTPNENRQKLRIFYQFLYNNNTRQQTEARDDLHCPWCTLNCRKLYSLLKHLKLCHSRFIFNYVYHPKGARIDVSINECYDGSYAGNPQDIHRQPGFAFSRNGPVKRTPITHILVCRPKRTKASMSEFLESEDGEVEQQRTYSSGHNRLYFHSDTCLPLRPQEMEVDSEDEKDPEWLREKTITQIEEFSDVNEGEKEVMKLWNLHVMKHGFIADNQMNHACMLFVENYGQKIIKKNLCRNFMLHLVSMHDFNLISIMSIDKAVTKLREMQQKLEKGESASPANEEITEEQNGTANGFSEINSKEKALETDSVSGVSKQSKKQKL", "sequence (Q09028 whole entry partner)": "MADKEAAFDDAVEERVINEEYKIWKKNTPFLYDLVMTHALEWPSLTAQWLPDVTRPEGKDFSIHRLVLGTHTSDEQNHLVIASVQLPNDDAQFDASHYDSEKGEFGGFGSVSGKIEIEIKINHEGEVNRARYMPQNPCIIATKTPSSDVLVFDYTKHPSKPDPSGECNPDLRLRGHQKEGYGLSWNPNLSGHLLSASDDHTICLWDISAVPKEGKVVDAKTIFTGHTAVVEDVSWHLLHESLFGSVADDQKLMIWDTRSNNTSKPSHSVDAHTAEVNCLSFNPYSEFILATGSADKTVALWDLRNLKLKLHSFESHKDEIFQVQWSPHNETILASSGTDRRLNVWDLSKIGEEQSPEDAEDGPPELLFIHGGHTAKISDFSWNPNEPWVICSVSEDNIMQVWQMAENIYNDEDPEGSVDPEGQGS", "sequence (Q6ZN18 whole entry partner)": "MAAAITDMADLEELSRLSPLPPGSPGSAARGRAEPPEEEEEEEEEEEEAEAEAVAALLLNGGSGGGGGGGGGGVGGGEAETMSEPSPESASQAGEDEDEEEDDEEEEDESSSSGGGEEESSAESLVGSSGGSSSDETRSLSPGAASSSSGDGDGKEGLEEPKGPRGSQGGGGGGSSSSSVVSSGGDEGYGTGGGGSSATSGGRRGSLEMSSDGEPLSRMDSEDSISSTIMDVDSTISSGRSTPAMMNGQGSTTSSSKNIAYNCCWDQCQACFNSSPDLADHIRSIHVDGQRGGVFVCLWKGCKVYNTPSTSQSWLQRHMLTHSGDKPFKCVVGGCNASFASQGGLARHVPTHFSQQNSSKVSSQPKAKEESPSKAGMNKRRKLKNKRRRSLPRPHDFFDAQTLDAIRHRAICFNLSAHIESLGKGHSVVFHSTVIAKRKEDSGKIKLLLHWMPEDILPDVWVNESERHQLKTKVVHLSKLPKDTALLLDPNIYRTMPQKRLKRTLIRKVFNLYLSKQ", "assay": "Radioisotope-based methyltransferase assay (selectivity)"}, "[3]": {"system": "H3K27me3 in HUDEP-2 cells", "assay": "Western blotting of H3K27me3", "format": "cell-based, human", "settings": "peer review file", "procedure": "Preparation of cell lysates and western blotting were performed as described previously. Protein from cells lysates in lysis buffer (50 mM Tris-HCl (pH 7.5), 150 mM NaCl, 5 mM EDTA, 0.1% NP-40, 1 mM dithiothreitol) were separated by sodium dodecyl sulfate–polyacrylamide gel electrophoresis (SDS-PAGE) and transferred to a polyvinylidene difluoride (PVDF) membrane (Millipore) by electroblotting. The membranes incubated with primary antibodies overnight at 4 °C and secondary antibodies for 1 h at room temperature. The immune complexes were detected with the Immobilon Western Chemiluminescent HRP Substrate (Millipore). Luminescence was analyzed on a FUSION SOLO S (Vilber). Western blot bands were visualized using Evolution Capt software (M&S Instruments Inc.). Primary antibodies used were anti-G9a (1:1000, CST, #3306), anti–α-tubulin (1:5000, Abcam, ab18251), anti-H3K9me2 (1:3000, Abcam, ab1220), anti-H3 (1:5000, Abcam, ab1791), anti-H3K27me3 (1:3000, Sigma, 07-449), anti-GLP (1:1000, CST, #35005), anti-FLAG (100 ng/ml, Fujifilm, 01422383), anti-His (1:5000, MBL, PM032), anti-BCL11A (1:1000, abcam, ab19487), anti-ZBTB7A (1:1000, CST, #50565), anti-CHD3 (1:1000, Novus Biologicals, NB100-60412), and anti-CHD4 (1:1000, abcam, ab240640). Uncropped scans of all of the blots are available in Source Data file."}, "[4]": {"target": "NSD2 (T1150A) (Homo sapiens, UniProt O96028, T1150A)", "sequence (O96028 whole entry T1150A)": "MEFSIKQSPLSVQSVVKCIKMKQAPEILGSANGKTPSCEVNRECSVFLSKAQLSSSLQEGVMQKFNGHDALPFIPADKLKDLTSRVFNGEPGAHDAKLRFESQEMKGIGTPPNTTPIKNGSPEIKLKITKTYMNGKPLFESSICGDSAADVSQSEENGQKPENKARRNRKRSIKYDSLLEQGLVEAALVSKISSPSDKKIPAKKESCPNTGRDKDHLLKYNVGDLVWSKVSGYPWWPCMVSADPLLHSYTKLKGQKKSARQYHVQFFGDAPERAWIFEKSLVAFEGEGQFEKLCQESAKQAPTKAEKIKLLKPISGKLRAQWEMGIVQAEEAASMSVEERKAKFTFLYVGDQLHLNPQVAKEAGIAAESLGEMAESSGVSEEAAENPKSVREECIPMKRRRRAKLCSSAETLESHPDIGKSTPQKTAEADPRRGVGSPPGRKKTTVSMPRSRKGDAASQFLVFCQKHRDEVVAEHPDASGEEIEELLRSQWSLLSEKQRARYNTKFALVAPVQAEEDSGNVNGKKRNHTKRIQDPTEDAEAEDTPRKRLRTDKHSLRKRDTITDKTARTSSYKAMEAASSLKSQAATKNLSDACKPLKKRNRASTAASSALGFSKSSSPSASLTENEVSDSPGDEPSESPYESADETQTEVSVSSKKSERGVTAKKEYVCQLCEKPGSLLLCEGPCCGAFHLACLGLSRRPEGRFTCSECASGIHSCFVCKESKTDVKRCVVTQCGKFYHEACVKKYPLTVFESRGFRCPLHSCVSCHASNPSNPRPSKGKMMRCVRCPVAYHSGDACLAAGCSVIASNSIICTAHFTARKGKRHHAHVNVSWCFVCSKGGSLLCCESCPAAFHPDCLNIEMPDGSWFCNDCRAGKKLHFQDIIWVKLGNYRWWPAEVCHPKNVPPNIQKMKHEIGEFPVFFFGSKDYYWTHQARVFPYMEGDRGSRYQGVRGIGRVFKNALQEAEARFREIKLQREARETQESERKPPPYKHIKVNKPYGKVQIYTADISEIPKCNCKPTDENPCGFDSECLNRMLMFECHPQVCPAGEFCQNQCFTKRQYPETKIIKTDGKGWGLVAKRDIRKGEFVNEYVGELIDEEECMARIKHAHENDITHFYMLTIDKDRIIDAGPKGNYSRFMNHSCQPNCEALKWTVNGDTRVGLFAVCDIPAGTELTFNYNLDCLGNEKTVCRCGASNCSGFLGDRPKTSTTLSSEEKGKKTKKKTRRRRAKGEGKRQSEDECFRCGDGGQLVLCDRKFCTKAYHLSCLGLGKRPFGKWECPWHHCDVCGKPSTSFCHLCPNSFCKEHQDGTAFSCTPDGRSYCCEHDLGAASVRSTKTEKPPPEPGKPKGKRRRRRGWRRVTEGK", "assay": "Radioisotope-based methyltransferase assay (selectivity)"}, "[5]": {"system": "α-, β-, εy-, and βh1-globin mRNA in peripheral blood", "assay": "Globin mRNA levels in peripheral blood of treated mice", "format": "in vivo", "procedure": "Total cellular RNA was prepared using the Tissue Total RNA Mini Kit (FAVORGEN), and cDNA was synthesized using ReverTra Ace Master Mix (TOYOBO). Expression of target genes was analyzed using THUNDERBIRD SYBR qPCR Mix (TOYOBO) on a CFX Connect Real Time System (Bio-Rad). The qPCR data were acquired on CFX Maestro (Bio-Rad). Primers are listed in Supplementary Table 10. GAPDH was used as a reference. Primers were purchased from INTEGRATED DNA TECHNOLOGIES or FASMAC.\nC57BL/6 mice (6–8 weeks old, female, six mice/group) were purchased from Tokyo Laboratory Animals Science. The mice were fed a standard laboratory diet and housed in a temperature-controlled room under specific pathogen-free conditions. A combination anesthetic was prepared with 0.3 mg/kg medetomidine, 4.0 mg/kg midazolam, and 5.0 mg/kg butorphanol.\nThe dosing solution contained 15% DMSO, 17.5% Cremophor EL, 8.75% EtOH, 8.75% HCO-40, and 50% PBS. Blood samples were collected once a week by Retro Orbital Sampling (75 μL Calibrated Micropipette; Drummond Scientific Company) during isoflurane anesthesia. Blood RNA was extracted using NucleoSpin RNA Blood (Takara Bio Inc.). The weight of each mouse was measured every 3 or 4 days."}, "[6]": {"system": "Salmonella typhimurium TA98", "assay": "Ames test, TA98", "procedure": "The Salmonella mutagenicity assay was performed by pre-incubating the test compounds for 20 min with Salmonella typhimurium strains TA98 and TA100, with and without metabolic activation (S9 mixture).\nAfter this time 2 mL of top agar was added to the mixture and poured on to a plate containing minimum agar. The plates were incubated at 37 °C for 49 h and the His ± revertant colonies were counted manually and automatically by a colony counter (Colony analyzer CA-11D systems, System science Co.,Ltd.). The influence of metabolic activation was tested by adding 500 μL of 10% S9 mixture. All experiments were performed in duplicate. […] DMSO served as the negative control (100 μL/plate). The mutagenic index (MI, the average number of revertants per plate divided by the average number of revertants per plate from the negative control) was also calculated for each dose. A sample was considered positive when the MI was equal to or greater than 2 for at least one of the tested doses."}, "[7]": {"target": "PRMT7 (Homo sapiens, UniProt Q9NVM4)", "sequence (Q9NVM4 whole entry)": "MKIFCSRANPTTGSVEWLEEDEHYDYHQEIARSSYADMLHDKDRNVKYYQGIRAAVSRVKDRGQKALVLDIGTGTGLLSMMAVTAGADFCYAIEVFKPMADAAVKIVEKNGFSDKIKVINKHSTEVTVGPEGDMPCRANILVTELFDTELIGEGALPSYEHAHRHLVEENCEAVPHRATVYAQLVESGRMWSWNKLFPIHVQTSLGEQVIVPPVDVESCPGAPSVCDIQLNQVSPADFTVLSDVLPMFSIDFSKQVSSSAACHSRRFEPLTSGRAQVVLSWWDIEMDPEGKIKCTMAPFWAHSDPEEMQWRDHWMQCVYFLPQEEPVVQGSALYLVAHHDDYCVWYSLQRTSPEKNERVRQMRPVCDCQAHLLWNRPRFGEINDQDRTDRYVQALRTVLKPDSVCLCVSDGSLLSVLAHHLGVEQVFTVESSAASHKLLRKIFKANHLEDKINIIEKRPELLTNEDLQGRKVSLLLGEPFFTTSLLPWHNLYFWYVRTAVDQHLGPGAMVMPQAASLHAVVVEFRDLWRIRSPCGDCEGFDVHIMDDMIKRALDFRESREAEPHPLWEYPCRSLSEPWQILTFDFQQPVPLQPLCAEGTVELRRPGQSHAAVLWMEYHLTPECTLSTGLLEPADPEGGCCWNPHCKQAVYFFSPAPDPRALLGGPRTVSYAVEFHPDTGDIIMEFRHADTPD"}}, "note": "Where “and” joins values, the source holds several entries; their conditions need not be identical. Identical values can stand only once.", "data": [{"smiles": "Cc1c(C(=O)NC(CCC2CC2)C(=O)Nc2ccc(C#N)cc2)[nH]c2c1C(=O)CC(C)(C)C2", "note": "(stereo not drawn) [RK-701]", "values": [{"measurement": "erythroid differentiation", "setting": "[1]", "value": "without affecting cell viability or erythroid differentiation"}, {"measurement": "IC50", "setting": "[2]", "value": "> 100", "unit": "µM"}, {"measurement": "H3K27me3", "setting": "[3]; 0.1 µM", "value": "no effect on H3K27me3"}, {"measurement": "H3K27me3", "setting": "[3]", "value": "slightly decrease H3K27me3 only at high"}, {"measurement": "IC50", "setting": "[4]", "value": "> 100", "unit": "µM"}, {"measurement": "mouse embryonic εy-globin", "setting": "[5]", "value": "selectively increased"}, {"measurement": "Number of reverants/plate", "setting": "[6]; TA98, + S9, frameshift mutation, 4.88 μg/plate", "value": 28}, {"measurement": "Number of reverants/plate", "setting": "[6]; TA98, + S9, frameshift mutation, 19.5 μg/plate", "value": "29 and 28"}, {"measurement": "Number of reverants/plate", "setting": "[6]; TA98, + S9, frameshift mutation, 78.1 μg/plate", "value": "31 and 30"}, {"measurement": "Number of reverants/plate", "setting": "[6]; TA98, + S9, frameshift mutation, 313 μg/plate", "value": 28}, {"measurement": "Number of reverants/plate", "setting": "[6]; TA98, + S9, frameshift mutation, 1250* μg/plate", "value": "32 and 28"}, {"measurement": "Number of reverants/plate", "setting": "[6]; TA98, + S9, frameshift mutation, 2500* μg/plate", "value": 28}, {"measurement": "Number of reverants/plate", "setting": "[6]; TA98, + S9, frameshift mutation, 5000* μg/plate", "value": "28 and 23"}, {"measurement": "Number of revertants/plate", "setting": "[6]; TA98, +S9, 4.88 μg/plate", "value": 28}, {"measurement": "Number of revertants/plate", "setting": "[6]; TA98, +S9, 19.5 μg/plate", "value": 29}, {"measurement": "Number of revertants/plate", "setting": "[6]; TA98, +S9, 78.1 μg/plate", "value": 31}, {"measurement": "Number of revertants/plate", "setting": "[6]; TA98, +S9, 313 μg/plate", "value": 28}, {"measurement": "Number of revertants/plate", "setting": "[6]; TA98, +S9, 1250 μg/plate, insoluble material", "value": 30}, {"measurement": "Number of revertants/plate", "setting": "[6]; TA98, +S9, 2500 μg/plate, insoluble material", "value": 28}, {"measurement": "Number of revertants/plate", "setting": "[6]; TA98, +S9, 5000 μg/plate, insoluble material", "value": 26}, {"measurement": "Number of reverants/plate", "setting": "[6]; TA98, - S9, frameshift mutation, 4.88 μg/plate", "value": "13 and 20"}, {"measurement": "Number of reverants/plate", "setting": "[6]; TA98, - S9, frameshift mutation, 19.5 μg/plate", "value": "12 and 13"}, {"measurement": "Number of reverants/plate", "setting": "[6]; TA98, - S9, frameshift mutation, 78.1 μg/plate", "value": "14 and 20"}, {"measurement": "Number of reverants/plate", "setting": "[6]; TA98, - S9, frameshift mutation, 313 μg/plate", "value": "14 and 12"}, {"measurement": "Number of reverants/plate", "setting": "[6]; TA98, - S9, frameshift mutation, 1250* μg/plate", "value": "11 and 12"}, {"measurement": "Number of reverants/plate", "setting": "[6]; TA98, - S9, frameshift mutation, 2500* μg/plate", "value": "11 and 12"}, {"measurement": "Number of reverants/plate", "setting": "[6]; TA98, - S9, frameshift mutation, 5000* μg/plate", "value": "13 and 16"}, {"measurement": "Number of revertants/plate", "setting": "[6]; TA98, -S9, 4.88 μg/plate", "value": 17}, {"measurement": "Number of revertants/plate", "setting": "[6]; TA98, -S9, 19.5 μg/plate", "value": 13}, {"measurement": "Number of revertants/plate", "setting": "[6]; TA98, -S9, 78.1 μg/plate", "value": 17}, {"measurement": "Number of revertants/plate", "setting": "[6]; TA98, -S9, 313 μg/plate", "value": 13}, {"measurement": "Number of revertants/plate", "setting": "[6]; TA98, -S9, 1250 μg/plate, insoluble material", "value": 12}, {"measurement": "Number of revertants/plate", "setting": "[6]; TA98, -S9, 2500 μg/plate, insoluble material", "value": 12}, {"measurement": "Number of revertants/plate", "setting": "[6]; TA98, -S9, 5000 μg/plate, insoluble material", "value": 15}, {"measurement": "mutagenicity", "setting": "[6]; TA98, regardless of metabolic activation", "value": "no mutagenicity"}, {"measurement": "IC50", "setting": "[7]", "value": "> 100", "unit": "µM"}]}]}
